Reference: PubChem BioAssay (NCI)
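Where inhibition never reached the appropriate level, the endpoint shown equals the highest concentration tested. Otherwise, values were interpolated linearly from a five-concentration, 48-hour dose response in 96-well plates. GI50 marks 50% less growth. TGI is the concentration that stops growth completely.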

Key:
Assay in all cases: NCI-60 cell line screen, 48 h
[1] = system: NCI/ADR-RES ovarian
[2] = system: OVCAR-4 ovarian
[3] = system: HL-60(TB) leukemia
[4] = system: OVCAR-8 ovarian
[5] = system: LOX IMVI melanoma
[6] = system: KM12 colon
[7] = system: BT-549 breast
[8] = system: UACC-62 melanoma
[9] = system: SN12C renal
[10] = system: M14 melanoma
[11] = system: NCI-H23 lung
[12] = system: SF-539 CNS
[13] = system: OVCAR-5 ovarian
[14] = system: MDA-MB-231 breast
[15] = system: IGROV1 ovarian
[16] = system: 786-0 renal
[17] = system: COLO 205 colon
[18] = system: TK-10 renal
[19] = system: ACHN renal
[20] = system: UACC-257 melanoma
[21] = system: MALME-3M melanoma
[22] = system: HT29 colon
[23] = system: K-562 leukemia
[24] = system: CCRF-CEM leukemia
[25] = system: CAKI-1 renal
[26] = system: SR leukemia
[27] = system: SF-295 CNS
[28] = system: DU-145 prostate
[29] = system: NCI-H460 lung
[30] = system: SNB-75 CNS
[31] = system: A498 renal
[32] = system: UO-31 renal
[33] = system: SK-MEL-5 melanoma
[34] = system: MOLT-4 leukemia
[35] = system: SK-OV-3 ovarian
[36] = system: SF-268 CNS
[37] = system: EKVX NSCLC
[38] = system: PC-3 prostate
[39] = system: HCT-15 colon
[40] = system: SW-620 colon
[41] = system: SK-MEL-28 melanoma
[42] = system: OVCAR-3 ovarian
[43] = system: NCI-H522 lung
[44] = system: HOP-92 NSCLC
[45] = system: SNB-19 CNS
[46] = system: MDA-MB-435
[47] = system: HCC-2998 colon
[48] = system: SK-MEL-2 melanoma
[49] = system: HOP-62 NSCLC
[50] = system: RXF 393 renal
[51] = system: HCT-116 colon
[52] = system: U251 CNS
[53] = system: NCI-H226 lung
[54] = system: HS 578T breast
[55] = system: RPMI-8226 leukemia
[56] = system: A549 NSCLC
[57] = system: T-47D breast
[58] = system: MCF7 breast

`Clc1cc(Cl)cc(N2N=C(c3cccc(Nc4ccncc4)c3)CC2c2ccc(Br)cc2)c1` (stereo unspecified) was tested, and the GI50 [1] was 1.91 µM, the TGI [1] was 3.86 µM and the GI50 [2] was 1.6 µM. The TGI [2] was 2.96 µM, the GI50 [3] was 2.44 µM and the TGI [3] was 6.08 µM. For the same compound, the GI50 [4] was 2.16 µM, the TGI [4] was 4.87 µM and the GI50 [5] was 1.7 µM. It also gave a TGI [5] of 3.06 µM, a GI50 [6] of 1.69 µM and a TGI [6] of 3.18 µM. For the same compound, the GI50 [7] was 1.94 µM, the TGI [7] was 3.72 µM and the GI50 [8] was 1.68 µM. For the same compound, the TGI [8] was 3.13 µM, the GI50 [9] was 1.67 µM and the TGI [9] was 3.11 µM. The GI50 [10] was 1.8 µM, the TGI [10] was 3.63 µM and the GI50 [11] was 1.79 µM. It also gave a TGI [11] of 3.41 µM, a GI50 [12] of 1.7 µM and a TGI [12] of 3.12 µM. It also gave a GI50 [13] of 1.55 µM, a TGI [13] of 2.92 µM and a GI50 [14] of 1.51 µM. It also gave a TGI [14] of 2.91 µM, a GI50 [15] of 1.74 µM and a TGI [15] of 3.3 µM. For the same compound, the GI50 [16] was 1.74 µM, the TGI [16] was 3.32 µM and the GI50 [17] was 1.82 µM. The TGI [17] was 3.86 µM, the GI50 [18] was 1.86 µM and the TGI [18] was 3.6 µM. For the same compound, the GI50 [19] was 1.66 µM, the TGI [19] was 3.02 µM and the GI50 [20] was 1.92 µM. It also gave a TGI [20] of 3.85 µM, a GI50 [21] of 1.71 µM and a TGI [21] of 3.5 µM. It also gave a GI50 [22] of 1.87 µM, a TGI [22] of 3.66 µM and a GI50 [23] of 2.26 µM. The TGI [23] was 5.69 µM, the GI50 [24] was 3.02 µM and the TGI [24] was 31.2 µM. For the same compound, the GI50 [25] was 1.54 µM, the TGI [25] was 2.91 µM and the GI50 [26] was 1.48 µM. For the same compound, the TGI [26] was 3.68 µM, the GI50 [27] was 1.79 µM and the TGI [27] was 3.2 µM. For the same compound, the GI50 [28] was 1.84 µM, the TGI [28] was 3.41 µM and the GI50 [29] was 1.81 µM. It also gave a TGI [29] of 3.51 µM, a GI50 [30] of 1.42 µM and a TGI [30] of 2.98 µM. For the same compound, the GI50 [31] was 1.08 µM, the TGI [31] was 2.3 µM and the GI50 [32] was 1.39 µM. The TGI [32] was 2.69 µM, the GI50 [33] was 1.81 µM and the TGI [33] was 3.26 µM. For the same compound, the GI50 [34] was 1.95 µM, the TGI [34] was 4.44 µM and the GI50 [35] was 2.01 µM. The TGI [35] was 4.11 µM, the GI50 [36] was 1.76 µM and the TGI [36] was 3.58 µM. For the same compound, the GI50 [37] was 1.6 µM, the TGI [37] was 3.2 µM and the GI50 [38] was 1.66 µM. It also gave a TGI [38] of 3.31 µM, a GI50 [39] of 1.8 µM and a TGI [39] of 3.49 µM. For the same compound, the GI50 [40] was 1.61 µM, the TGI [40] was 3.04 µM and the GI50 [41] was 1.83 µM. It also gave a TGI [41] of 3.37 µM, a GI50 [42] of 1.72 µM and a TGI [42] of 3.21 µM. For the same compound, the GI50 [43] was 1.88 µM, the TGI [43] was 3.88 µM and the GI50 [44] was 1.48 µM. For the same compound, the TGI [44] was 2.94 µM, the GI50 [45] was 1.63 µM and the TGI [45] was 3.16 µM. The GI50 [46] was 1.61 µM, the TGI [46] was 3 µM and the GI50 [47] was 1.77 µM. For the same compound, the TGI [47] was 3.2 µM.
Compound `Cc1cc(S(=O)(=O)NC#N)c(S/C(=N\Nc2ccc([N+](=O)[O-])cc2)c2ccccc2)cc1Cl` has a GI50 [48] of 13.8 µM, a TGI [48] of 34 µM and a GI50 [2] of 13.9 µM. For the same compound, the TGI [2] was 31.8 µM, the GI50 [3] was 21.6 µM and the TGI [3] was 83.1 µM. It also gave a GI50 [4] of 16.8 µM, a TGI [4] of 42.8 µM and a GI50 [5] of 15.4 µM. It also gave a TGI [5] of 28.8 µM, a GI50 [6] of 16.6 µM and a TGI [6] of 30.2 µM. For the same compound, the GI50 [7] was 15.7 µM, the TGI [7] was 36.7 µM and the GI50 [49] was 17.2 µM. It also gave a TGI [49] of 32.3 µM, a GI50 [50] of 23.4 µM and a TGI [50] of 48.9 µM. It also gave a GI50 [8] of 21.5 µM, a TGI [8] of 51.8 µM and a GI50 [9] of 20.9 µM. For the same compound, the TGI [9] was 52.3 µM, the GI50 [10] was 18.1 µM and the TGI [10] was 37.3 µM. The GI50 [11] was 15.4 µM, the TGI [11] was 28.8 µM and the GI50 [13] was 15.7 µM. It also gave a TGI [13] of 32.4 µM, a GI50 [15] of 17.9 µM and a TGI [15] of 39.3 µM. The GI50 [16] was 33.8 µM, the TGI [16] was greater than 100 µM and the GI50 [17] was 44.7 µM. The TGI [17] was greater than 100 µM, the GI50 [18] was 16 µM and the TGI [18] was 38.3 µM. The GI50 [19] was 18 µM, the TGI [19] was 41.5 µM and the GI50 [20] was 35.9 µM. It also gave a TGI [20] greater than 100 µM, a GI50 [21] of 16.5 µM and a TGI [21] of 39.6 µM. It also gave a GI50 [51] of 13.8 µM, a TGI [51] of 30.6 µM and a GI50 [23] of 15.2 µM. For the same compound, the TGI [23] was 42.9 µM, the GI50 [52] was 14.9 µM and the TGI [52] was 28.1 µM. For the same compound, the GI50 [24] was 20.2 µM, the TGI [24] was 51.5 µM and the GI50 [25] was 21.1 µM. It also gave a TGI [25] of 45.8 µM, a GI50 [27] of 15.9 µM and a TGI [27] of 34 µM. It also gave a GI50 [28] of 11.7 µM, a TGI [28] of 24 µM and a GI50 [29] of 18.7 µM. It also gave a TGI [29] of 36.3 µM, a GI50 [30] of 20.4 µM and a TGI [30] greater than 100 µM. For the same compound, the GI50 [53] was 16.3 µM, the TGI [53] was 33.1 µM and the GI50 [54] was 16.2 µM. For the same compound, the TGI [54] was 43.2 µM, the GI50 [32] was 15.5 µM and the TGI [32] was 36.7 µM. It also gave a GI50 [33] of 19.3 µM, a TGI [33] of 35.7 µM and a GI50 [34] of 4.43 µM. The TGI [34] was 81.2 µM, the GI50 [35] was greater than 100 µM and the TGI [35] was greater than 100 µM. The GI50 [55] was 19.5 µM, the TGI [55] was 61.8 µM and the GI50 [56] was 18.7 µM. It also gave a TGI [56] of 40.8 µM, a GI50 [36] of 19.2 µM and a TGI [36] of 43.7 µM. The GI50 [37] was 17.2 µM, the TGI [37] was 34.7 µM and the GI50 [38] was 21.5 µM. The TGI [38] was 57.1 µM, the GI50 [40] was 17.1 µM and the TGI [40] was 30.8 µM. It also gave a GI50 [41] of 17.2 µM, a TGI [41] of 37.4 µM and a GI50 [57] greater than 100 µM. It also gave a TGI [57] greater than 100 µM, a GI50 [42] of 14.2 µM and a TGI [42] of 30.5 µM. The GI50 [43] was 14.6 µM, the TGI [43] was 32.6 µM and the GI50 [44] was 10.7 µM. The TGI [44] was 32.7 µM, the GI50 [45] was 38 µM and the TGI [45] was greater than 100 µM. For the same compound, the GI50 [46] was 32.7 µM, the TGI [46] was greater than 100 µM and the GI50 [58] was 14.7 µM. The TGI [58] was 28.3 µM, the GI50 [47] was 17.2 µM and the TGI [47] was 30.9 µM.
